Results: publication PMC11363325, “A Novel Prodrug Strategy Based on Reversibly Degradable Guanidine Imides for High Oral Bioavailability and Prolonged Pharmacokinetics of Broad-Spectrum Anti-influenza Agents” (ACS Central Science, 2024)
Read-outs that look alike come from different tables or passages of the source.

How the values were obtained:
in vitro [1] = assay type: in vitro ADME; settings: PAMPA
Protocol: To assess this hypothesis, we conducted the parallel artificial membrane permeability assay (PAMPA) for simulating passive transcellular permeation.[41]
Supplemental Experimental Procedures
In vitro Parallel Artificial Membrane Permeability Assay (PAMPA) […]
evaluated using Parallel Artificial Membrane Permeability Assay Kit (PAMPA-096). Each prodrug and the supplied permeability controls were dissolved in DMSO at the concentration of 10 mM. Then 25 μL of each prodrug solution was mixed with 475 μL of 50 mM sodium phosphate buffer (pH 6.5) to be used as the test solution. GOC/HPMCP and OSC-GCDI/HPCMP particles are dissolved in 50 mM sodium phosphate buffer (5% DMSO, pH 6.5) to achieve a final concentration of 200 µM. In the acceptor plate, 300 μL of 50 mM sodium phosphate buffer (pH 7.4) was added. Subsequently, before adding 200 μL of each test solution to the donor plate, 5 μL of 4% lecithin in dodecane was directly applied to the well membrane of the donor plate. Donor plate was carefully placed into acceptor plate and incubate at r.t. for 16 – 24 h. Donor plate was removed and each solution was collected and filtered by a PVDF filter (0.20 μm pore size). The total prodrug concentration in each plate was determined by HPLC analysis.
In the case of OSC-GCDI(P), partial degradation occurred due to the instability of OSC-GCDI(P) in the buffer. Therefore, the collected solution was further incubated in a 1 M KOH solution for complete hydrolysis. Then, the concentration of GOC was quantified instead.

[2] = Stability of OSC-GCDIs and GOC release in BALB/c serum; assay type: in vitro ADME; settings: mouse; for GOC released: 200 μM
Protocol: (§1) Stability of OSC-GCDIs in serum
Stability of the GCDI prodrugs were examined by incubating prodrugs in human and BALB/c serum at 37 °C and 200 μM final concentration. Briefly, each prodrug was dissolved in DMSO to be 20 mM concentration, then 10 μL of each prodrug solution was mixed with 990 μL of serum. At different time intervals, 100 μL of the samples were taken and mixed with 100 μL of MeCN. Samples were centrifuged at 14,000 rpm for 10 min at 4 °C and the supernatant was immediately frozen (−80 °C). After thawing and shaking, the samples were filtered using a polytetrafluoroethylene (PTFE) filter (0.20 μm pore size) […]
Release profiles of GOC from the OSC -GCDI prodrugs conjugated to human serum albumin OSC-GCDIs were dissolved in Dulbecco ’s Phosphate-Buffered Saline (DPBS) containing HSA (20 mg/mL) to be concentration of 1 mM, then the mixture was shaken for 10 min at 37 °C. Unbound OSC-GCDIs were removed by washing twice with DPBS using Vivaspin 500 ultrafiltration units (10 kDa cutoff).
Following centrifugation, the samples were redissolved in 1 mL DPBS. Before incubation at 37 °C, 50 µL sample was taken and mixed with 50 µL of 1 M KOH in m ethanol solution to completely hydrolyze the conjugates and determine the initial drug concentration bound to HSA. Subsequently, the samples were incubated at 37 °C and after 1, 2, 4, 24, and 72 h incubation, 50 µL of the samples were taken and mixed with 50 µL MeCN. Then, the concentration of the released GOC was quantified by HPLC. […]

[3] = test system: A/Puerto Rico/8/1934 (PR8; H1N1); experiment: microbe, parasite or virus in culture; settings: Influenza A virus, MDCK
[4] = test system: A/Hong Kong/8/1968 (HK; H3N2); experiment: microbe, parasite or virus in culture; settings: Influenza A virus, H3N2, MDCK
in vitro [5] = experiment: in vitro
[6] = Stability of OSC-GCDIs in phosphate buffers; assay type: physicochemical
physchem [7] = assay type: physicochemical; settings: pH 7.4
B/Lee/1940 (Lee) = experiment: microbe, parasite or virus in culture; settings: Influenza B virus, MDCK
physchem [8] = assay type: physicochemical
[9] = Stability of OSC-GCDIs in human serum; assay type: in vitro ADME; settings: 200 μM prodrug, 37 °C
Protocol: as §1
Stability of the GCDI prodrugs were examined by incubating prodrugs in human and BALB/c serum at 37 °C and 200 μM final concentration. Briefly, each prodrug was dissolved in DMSO to be 20 mM concentration, then 10 μL of each prodrug solution was mixed with 990 μL of serum. At different time intervals, 100 μL of the samples were taken and mixed with 100 μL of MeCN. Samples were centrifuged at 14,000 rpm for 10 min at 4 °C and the supernatant was immediately frozen (−80 °C). After thawing

[10] = In vitro microsomal stability; assay type: in vitro ADME, rat; settings: for half-life at 100 μM: liver microsomes; for CLint (intrinsic clearance): rat
Protocol: In vitro microsomal stability
Sprague Dawley rat microsomes were obtained from GibcoTM. NADPH was purchased from Sigma-Aldrich (Munich, Germany). Liver microsomes at 0.5 mg/mL concentration (final volume of 200 μL) were incubated in phosphate buffer (pH 7.4), containing 3 mM MgCl2. OSC-GCDI prodrug was dissolved in DMSO to be 40 mM concentration, then each prodrug solution was mixed with prepared buffer to achieve a final concentration of 100 μM (0.25% DMSO). Test compounds were incubated at 37 °C and started by the addition of the 1mM NADPH as cofactor. The samples were taken at 0, 30, 60, and 90 min. The reaction was terminated by addition of ice-cold acetonitrile/methanol (1:1, v/v). After collection, samples were centrifuged (10 min, 16,000 rpm), then the centrifuged supernatant was directly analyzed by using HPLC analysis. Metabolic half-time (t1/2) was calculated by using the equation of first order

[11] = cited from earlier work
[12] = parameters: method as in Buss, J. L.; Hasinoff, B. B. J. Mol. Model. 2001, 7, 438–444; settings: amine-based imides; ref Buss, J. L.; Hasinoff, B. B. J. Mol. Model. 2001, 7, 438–444; cited from earlier work
[13] = biological target: human serum albumin (HSA) (Homo sapiens, UniProt P02768); experiment: Albumin binding of OSC-GCDIs (MALDI-TOF MS); settings: MALDI-TOF MS of trypsin-digested HSA
Protocol: Albumin binding of OSC-GCDIs
OSC-GCDI(P) (0.2 mg/mL or 10 mg/mL) was mixed with HSA (1 mg/mL) in 50 mM Tris -HCl buffer (pH 6.8). The sample was shaken for 20 min at room temperature. Unbound OSC-GCDI(P) was removed by washing three times with distilled water (DW) using Vivaspin 500 ultrafiltration units (10 kDa cutoff).
Following centrifugation, the HSA samples were placed in the condition of 8 M urea, 50 mM Tris-HCl (pH 6.8), and 5 mM DTT at 37 °C for 60 min. Then, 50 mM Tris-HCl (pH 6.8) was added until the urea concentration was less than 1 M. Trypsin Gold was then added to achieve a final protease-to-protein ratio of 1:20 (w/w). The sample was incubated at 37 °C for 60 min. The mass-to-charge ratio of the digested sample was measured by MALDI-TOF (Matrix -Assisted Laser Desorption/Ionization Time -of-Flight) MS using α-cyano-4-hydroxycinnamic acid as the matrix. […]

[14] = mice, oral, non-formulated prodrug
[15] = authors' response to reviewers, no reference given; cited from earlier work
[16] = BALB/c serum, 200 μM prodrug, 37 °C, read-out: T1/2
[17] = sodium phosphate buffer, pH 2, phosphate buffer pH 2.0, 37 °C, read-out: T1/2
[18] = sodium phosphate buffer, pH 6.5, phosphate buffer pH 6.5, 37 °C, read-out: T1/2
[19] = sodium phosphate buffer, pH 7.4, phosphate buffer pH 7.4, 37 °C, read-out: T1/2
[20] = sodium phosphate buffer, pH 8, phosphate buffer pH 8.0, 37 °C, read-out: T1/2
[21] = Sprague Dawley, pH 7.4, rat liver microsome, 100 μM, 37 °C

human serum albumin (HSA), sequence (P02768 25-609): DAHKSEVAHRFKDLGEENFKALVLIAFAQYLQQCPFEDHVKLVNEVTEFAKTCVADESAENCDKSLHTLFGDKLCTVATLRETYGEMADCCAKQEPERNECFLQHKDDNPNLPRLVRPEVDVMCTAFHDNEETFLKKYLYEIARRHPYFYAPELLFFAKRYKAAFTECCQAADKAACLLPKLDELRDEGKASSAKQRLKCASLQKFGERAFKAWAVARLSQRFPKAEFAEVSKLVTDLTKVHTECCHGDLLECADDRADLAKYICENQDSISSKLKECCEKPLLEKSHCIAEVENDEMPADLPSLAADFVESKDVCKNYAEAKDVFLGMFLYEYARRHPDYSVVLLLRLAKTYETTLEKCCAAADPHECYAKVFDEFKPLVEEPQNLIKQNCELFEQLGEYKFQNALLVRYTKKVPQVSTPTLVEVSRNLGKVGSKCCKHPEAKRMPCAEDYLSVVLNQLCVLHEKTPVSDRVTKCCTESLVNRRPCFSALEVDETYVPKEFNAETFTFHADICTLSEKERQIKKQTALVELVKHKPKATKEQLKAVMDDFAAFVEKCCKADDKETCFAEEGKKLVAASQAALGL

Row | SMILES | Papp at 500 μM (in vitro [1]) [×10⁻⁶ cm/s] | half-life at 200 μM [2, 16] [h] | EC50 [3] [nM] | EC50 [4] [nM] | CC50 at 3 days (in vitro [5]; dog) [nM] | half-life at 100 μM [6, 17] [h] | half-life at 100 μM [6, 18] [h] | half-life at 100 μM [6, 19] [h] | half-life at 100 μM [6, 20] [h] | logD (physchem [7]) | EC50 (B/Lee/1940 (Lee)) [nM] | logP (physchem [8]) | half-life at 200 μM [9] [h] | other results
1 | CCC(CC)O[C@@H]1C=C(C(=O)O)C[C@H](N=C(N2C(=O)[C@H]3CCCC[C@H]3C2=O)N2C(=O)[C@H]3CCCC[C@H]3C2=O)[C@H]1NC(C)=O [OSC-GCDI(C)] | 2.99 | 0.397 | 10 ± 10 | < 5 | > 100000 | > 24 | 10.5 | 1.36 | 0.447 | 0.46 | 2210 ± 200 | 1.33 | 0.437 | 
2 | CCC(CC)O[C@@H]1C=C(C(=O)O)C[C@H](NC(=N)N)[C@H]1NC(C)=O [GOC, guanidino oseltamivir carboxylate, reference compound] |  |  | 5 ± 1 | < 5 |  |  |  |  |  |  | 700 ± 150 |  |  | Effective permeability Pe (in vitro [1]): almost negligible; half-life ([10]; Sprague Dawley, microsomes, pH 7.4, rat liver microsome, 100 μM, 37 °C): 116 h; remaining GOC ([10]; rat liver microsomes, after 90-min incubation): 98.8%; oral bioavailability ([11]; in vivo, po): < 4%; CC50 (in vitro [5]; dog): > 100000 nM; logD (physchem [7]; octanol-phosphate buffer, read-out: log D7.4): -1.49; logP (physchem [8]; octanol–water, room temperature, read-out: log P): -1.35
3 | CCC(CC)O[C@@H]1C=C(C(=O)O)C[C@H](N=C(N2C(=O)CC(C)(C)C2=O)N2C(=O)CC(C)(C)C2=O)[C@H]1NC(C)=O [OSC-GCDI(D)] | 1.66 | 2.63 | 70 ± 10 | 30 ± 10 | > 100000 | > 24 | > 24 | 8.25 | 2.69 | -0.32 | 13700 ± 2850 | 0.98 | 1.95 | half-life at 200 μM ([2]; BALB/c, serum): > 1.67 h; half-life at 100 μM [10, 21]: 6.42 h; CLint (intrinsic clearance) ([10]; microsomes): 3.60; half-life at 100 μM ([6]; buffer, pH 7.4, half-life): > 8 h; T1/2 ([6]; phosphate buffer pH 7.4, 37 °C): 8.252 h
4 | O=C1C=CC(=O)N1 [maleimide] |  |  |  |  |  |  |  |  |  |  |  |  |  | hydrolysis rate compared to succinimide [12]: 300 times faster
5 | CCC(CC)O[C@@H]1C=C(C(=O)O)C[C@H](N=C(N2C(=O)c3ccccc3C2=O)N2C(=O)c3ccccc3C2=O)[C@H]1NC(C)=O [OSC-GCDI(P)] | 3.88 ± 0.31 | 0.0217 | 30 ± 10 | 10 ± 10 | > 100000 | 1.57 | 1.47 | 0.235 | < 0.0167 | 1.01 | 2260 ± 400 | 1.61 | 0.0217 | Effective permeability Pe (in vitro [1]; 500 μM): 3.07 ×10⁻⁶ cm/s; GOC released ([2]; BALB/c, 30 min): 37%; GOC released ([2]; BALB/c, 24 h): 68%; half-life at 200 μM ([2]; BALB/c, serum): 0.0217 h; half-life at 100 μM [10, 21]: 0.295 h; CLint (intrinsic clearance) ([10]; microsomes): 78.2; T1/2 ([6]; phosphate buffer pH 2.0, 37 °C): 1.56 h; T1/2 ([6]; phosphate buffer pH 6.5, 37 °C): 1.46 h; covalent conjugation to HSA [13]: covalent adducts; plasma concentration of the prodrug [14]: below detection limit
6 | CCOC(=O)C1=C[C@@H](OC(CC)CC)[C@H](NC(C)=O)[C@@H](N)C1 [OS-P, Oseltamivir phosphate, reference compound] | 2.27 |  |  |  |  |  |  |  |  | -0.42 |  | 0.22 |  | oral bioavailability ([11]; authors' response to reviewers, no reference given): 80%; oral bioavailability ([11]; in vivo, po): > 80%; half-life ([11]; in vivo): less than 1 day
7 | NC12CC3CC(CC(C3)C1)C2 [AMT, Amantadine, reference compound] |  |  | > 100000 | 1560 ± 400 |  |  |  |  |  |  | > 100000 |  |  | CC50 at 3 days (in vitro [5]): > 100000 nM
8 | O=C1NC(=O)c2ccccc21 [phthalimide] |  |  |  |  |  |  |  |  |  |  |  |  |  | hydrolysis rate compared to succinimide [12]: 100 times faster
9 | CCCCC1CC(=O)N(C(=N[C@H]2CC(C(=O)O)=C[C@@H](OC(CC)CC)[C@@H]2NC(C)=O)N2C(=O)CC(CCCC)C2=O)C1=O (some centres unmarked) [OSC-GCDI(B)] | 4.5 | 0.285 | 90 ± 10 | 40 ± 10 | > 100000 | > 24 | > 24 | 7.7 | 2.62 | 0.91 | 72400 ± 1350 | 1.83 | 0.875 | increase of lipophilicity of GOC via the GCDI modification (based on P) (physchem [8]): 2082 fold
10 | C=CC(=O)O [acrylic acid] |  |  |  |  |  |  |  |  |  |  |  |  |  | pKa [15]: 4.3
11 | CCC(CC)O[C@@H]1C=C(C(=O)O)C[C@H](N)[C@H]1NC(C)=O [OSC, oseltamivir carboxylate, reference compound] |  |  | 100 ± 10 | < 5 | > 100000 |  |  |  |  |  | 1290 ± 250 |  |  | 
